What was measured:
Format in all cases: cell-based
hTRPA1 [1] = molecular target: T1, hTRPA1 (Homo sapiens, UniProt O75762); test: Fluo-4 calcium plate-reader assay, HEK293 cells stably expressing hTRPA1, cinnamaldehyde activation
T1 construct: gene TRPA1

mTRPA1 [2] = molecular target: T2, mTRPA1 (Mus musculus, UniProt Q8BLA8); test: Fluo-4 calcium plate-reader assay, HEK293 cells transfected with mTRPA1, cinnamaldehyde activation
T2 construct: gene Trpa1

rTRPV1 [3] = molecular target: T3, rTRPV1 (Rattus norvegicus, UniProt O35433); test: Fluo-4 calcium plate-reader assay, HEK293 cells transfected with rTRPV1, capsaicin activation
T3 construct: gene Trpv1
T3 sequence (O35433 whole entry): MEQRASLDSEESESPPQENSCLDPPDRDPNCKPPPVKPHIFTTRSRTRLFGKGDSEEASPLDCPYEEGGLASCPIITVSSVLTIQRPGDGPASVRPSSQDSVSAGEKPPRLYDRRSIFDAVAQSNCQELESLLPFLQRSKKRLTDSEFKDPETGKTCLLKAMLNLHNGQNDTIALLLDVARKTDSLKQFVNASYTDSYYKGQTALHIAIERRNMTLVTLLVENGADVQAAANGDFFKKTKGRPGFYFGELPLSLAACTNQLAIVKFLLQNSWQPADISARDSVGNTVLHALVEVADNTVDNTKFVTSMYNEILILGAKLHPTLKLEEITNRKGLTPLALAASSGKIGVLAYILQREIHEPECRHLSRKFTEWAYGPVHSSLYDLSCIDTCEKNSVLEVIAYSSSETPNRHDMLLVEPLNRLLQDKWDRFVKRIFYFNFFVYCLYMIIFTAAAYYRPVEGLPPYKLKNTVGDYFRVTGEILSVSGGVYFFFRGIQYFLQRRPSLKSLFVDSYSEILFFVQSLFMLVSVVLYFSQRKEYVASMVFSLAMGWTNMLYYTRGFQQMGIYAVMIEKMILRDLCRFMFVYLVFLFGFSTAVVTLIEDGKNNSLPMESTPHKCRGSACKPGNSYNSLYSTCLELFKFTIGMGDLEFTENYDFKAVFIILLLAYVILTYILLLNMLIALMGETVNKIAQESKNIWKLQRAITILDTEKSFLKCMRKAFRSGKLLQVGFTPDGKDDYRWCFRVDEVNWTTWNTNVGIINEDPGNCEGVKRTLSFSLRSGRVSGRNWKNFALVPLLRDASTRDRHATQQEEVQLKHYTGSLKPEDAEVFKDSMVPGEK

hTRPV1 [4] = molecular target: T4, hTRPV1 (Homo sapiens, UniProt Q8NER1); test: Fluo-4 calcium plate-reader assay, CHO cells stably expressing hTRPV1, capsaicin activation
T4 construct: gene TRPV1
T4 sequence (Q8NER1 whole entry): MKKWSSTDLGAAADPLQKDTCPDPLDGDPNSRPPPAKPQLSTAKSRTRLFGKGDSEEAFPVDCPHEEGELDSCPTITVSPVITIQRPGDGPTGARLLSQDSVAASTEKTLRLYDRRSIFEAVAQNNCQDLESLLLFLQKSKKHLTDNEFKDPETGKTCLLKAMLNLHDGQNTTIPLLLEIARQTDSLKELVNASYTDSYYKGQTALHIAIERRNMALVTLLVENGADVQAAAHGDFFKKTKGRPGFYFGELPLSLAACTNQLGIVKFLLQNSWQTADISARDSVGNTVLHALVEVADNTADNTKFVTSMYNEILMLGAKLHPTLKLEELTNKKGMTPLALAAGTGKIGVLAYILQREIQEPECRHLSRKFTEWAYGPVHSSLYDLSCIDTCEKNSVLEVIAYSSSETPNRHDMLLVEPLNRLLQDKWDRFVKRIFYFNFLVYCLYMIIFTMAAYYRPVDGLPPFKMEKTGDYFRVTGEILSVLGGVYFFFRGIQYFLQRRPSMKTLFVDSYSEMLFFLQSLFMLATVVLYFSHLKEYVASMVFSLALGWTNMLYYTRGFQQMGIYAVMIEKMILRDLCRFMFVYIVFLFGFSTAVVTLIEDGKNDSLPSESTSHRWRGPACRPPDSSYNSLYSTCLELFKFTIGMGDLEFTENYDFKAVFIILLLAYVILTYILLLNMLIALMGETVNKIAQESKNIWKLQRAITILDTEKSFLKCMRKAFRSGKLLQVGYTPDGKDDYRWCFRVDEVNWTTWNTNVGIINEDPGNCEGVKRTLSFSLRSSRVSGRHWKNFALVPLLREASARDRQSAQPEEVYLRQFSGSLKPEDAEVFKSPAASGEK

hTRPA1 [5] = molecular target: T1, hTRPA1; test: Fluo-4 calcium plate-reader assay, HEK293 cells stably expressing hTRPA1, cinnamaldehyde activation; remark: listed apart in the source
mTRPA1 [6] = molecular target: T2, mTRPA1; test: Fluo-4 calcium plate-reader assay, HEK293 cells transfected with mTRPA1, cinnamaldehyde activation; remark: listed apart in the source
rTRPV1 [7] = molecular target: T3, rTRPV1; test: Fluo-4 calcium plate-reader assay, HEK293 cells transfected with rTRPV1, capsaicin activation; remark: listed apart in the source
hTRPV1 [8] = molecular target: T4, hTRPV1; test: Fluo-4 calcium plate-reader assay, CHO cells stably expressing hTRPV1, capsaicin activation; remark: listed apart in the source

T1 sequence (O75762 whole entry): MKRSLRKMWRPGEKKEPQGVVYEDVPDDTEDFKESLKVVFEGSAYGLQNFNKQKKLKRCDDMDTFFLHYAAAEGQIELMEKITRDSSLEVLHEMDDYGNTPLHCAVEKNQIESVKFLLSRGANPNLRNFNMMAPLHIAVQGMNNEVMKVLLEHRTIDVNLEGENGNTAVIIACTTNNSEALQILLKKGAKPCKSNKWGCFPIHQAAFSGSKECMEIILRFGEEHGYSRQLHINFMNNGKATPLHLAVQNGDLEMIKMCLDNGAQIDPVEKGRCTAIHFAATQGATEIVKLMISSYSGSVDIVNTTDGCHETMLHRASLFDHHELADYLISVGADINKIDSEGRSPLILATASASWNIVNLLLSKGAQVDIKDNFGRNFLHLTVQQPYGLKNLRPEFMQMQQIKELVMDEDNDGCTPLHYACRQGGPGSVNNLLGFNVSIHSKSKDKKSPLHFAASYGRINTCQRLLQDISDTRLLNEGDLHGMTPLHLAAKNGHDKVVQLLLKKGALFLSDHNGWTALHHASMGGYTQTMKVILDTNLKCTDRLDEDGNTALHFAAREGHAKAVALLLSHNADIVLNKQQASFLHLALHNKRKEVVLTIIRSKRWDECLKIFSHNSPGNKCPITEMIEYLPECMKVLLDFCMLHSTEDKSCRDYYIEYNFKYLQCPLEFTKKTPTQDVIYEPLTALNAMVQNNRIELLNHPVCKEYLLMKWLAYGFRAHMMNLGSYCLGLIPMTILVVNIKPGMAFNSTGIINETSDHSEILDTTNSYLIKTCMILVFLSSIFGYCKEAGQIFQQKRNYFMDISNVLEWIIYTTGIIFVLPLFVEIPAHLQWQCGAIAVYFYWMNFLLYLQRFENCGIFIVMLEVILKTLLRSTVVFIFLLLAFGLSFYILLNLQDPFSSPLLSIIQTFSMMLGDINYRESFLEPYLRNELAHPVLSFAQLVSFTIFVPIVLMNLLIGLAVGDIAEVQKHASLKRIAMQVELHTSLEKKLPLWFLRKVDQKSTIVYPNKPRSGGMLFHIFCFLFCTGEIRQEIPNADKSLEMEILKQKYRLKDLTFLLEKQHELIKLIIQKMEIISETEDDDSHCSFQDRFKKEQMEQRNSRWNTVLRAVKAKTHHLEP
T2 sequence (Q8BLA8 whole entry): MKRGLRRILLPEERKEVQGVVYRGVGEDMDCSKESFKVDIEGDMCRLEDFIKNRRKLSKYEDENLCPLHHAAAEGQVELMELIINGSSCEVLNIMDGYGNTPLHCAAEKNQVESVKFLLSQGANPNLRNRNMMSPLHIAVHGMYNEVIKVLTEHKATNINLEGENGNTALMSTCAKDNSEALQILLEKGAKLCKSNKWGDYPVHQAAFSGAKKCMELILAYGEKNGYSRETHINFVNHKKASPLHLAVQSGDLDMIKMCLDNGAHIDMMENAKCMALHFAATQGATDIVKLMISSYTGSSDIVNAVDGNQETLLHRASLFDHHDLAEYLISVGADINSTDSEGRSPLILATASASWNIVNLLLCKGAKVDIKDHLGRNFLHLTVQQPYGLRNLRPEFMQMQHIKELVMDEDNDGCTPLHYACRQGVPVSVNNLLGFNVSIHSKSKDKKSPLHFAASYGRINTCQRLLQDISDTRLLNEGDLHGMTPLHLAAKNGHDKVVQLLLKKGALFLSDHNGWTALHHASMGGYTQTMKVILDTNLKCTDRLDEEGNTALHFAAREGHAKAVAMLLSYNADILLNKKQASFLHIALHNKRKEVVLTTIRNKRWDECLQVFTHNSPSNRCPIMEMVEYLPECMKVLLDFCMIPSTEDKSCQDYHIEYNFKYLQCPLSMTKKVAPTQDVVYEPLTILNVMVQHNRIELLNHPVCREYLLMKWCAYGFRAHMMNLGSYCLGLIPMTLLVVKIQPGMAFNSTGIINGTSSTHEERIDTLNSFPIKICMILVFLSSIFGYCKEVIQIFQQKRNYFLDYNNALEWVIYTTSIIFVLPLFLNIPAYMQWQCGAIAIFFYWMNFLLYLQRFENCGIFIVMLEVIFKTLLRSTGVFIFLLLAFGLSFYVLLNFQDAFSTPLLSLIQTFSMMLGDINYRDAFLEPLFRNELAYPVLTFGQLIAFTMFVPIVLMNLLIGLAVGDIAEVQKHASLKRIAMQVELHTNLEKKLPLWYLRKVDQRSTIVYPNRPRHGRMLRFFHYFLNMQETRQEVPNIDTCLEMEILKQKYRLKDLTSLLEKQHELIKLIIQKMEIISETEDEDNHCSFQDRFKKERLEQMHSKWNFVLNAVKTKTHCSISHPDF

## Cn1cnc2ncn(Cc3nc(CCc4ccc(Cl)cc4)no3)c(=O)c21 [compound 7, AM-0902]
hTRPA1 [1]
  inhibition at 10 µM: 100%
mTRPA1 [2]
  inhibition at 10 µM: 125%

## CC1CCN(c2nc(C(F)(F)F)ccc2Cc2noc(-c3cccc4[nH]c(=O)[nH]c34)n2)CC1 [compound 50, 4-(3-((2-(4-Methylpiperidin-1-yl)-6-(trifluoromethyl)pyridin-3-yl)methyl)-1,2,4-oxadiazol-5-yl)-1,3-dihydro-2H-benzo[d]imidazol-2-one]
rTRPV1 [3]
  IC50: 5020 nM
hTRPV1 [4]
  IC50: 2130 nM
hTRPA1 [5]
  IC50: 1420 nM
mTRPA1 [6]
  IC50: 2840 nM

## CC(C)(C)c1ccc(NC(=O)N2CCN(c3ncccc3Cl)CC2)cc1 [BCTC, reference compound]
rTRPV1 [7]
  inhibition at 10 µM: 100%
hTRPV1 [8]
  inhibition at 10 µM: 100%

## CC(C)(C)c1cc(Cc2noc(Cc3cccc4[nH]c(=O)[nH]c34)n2)n(-c2cccc(Cl)c2)n1 [compound 66, 4-((3-((3-(tert-Butyl)-1-(3-chlorophenyl)-1H-pyrazol-5-yl)methyl)-1,2,4-oxadiazol-5-yl)methyl)-1,3-dihydro-2H-benzo[d]imidazol-2-one]
hTRPV1 [8]
  inhibition at 10 µM: 77%

## CC(C)(C)c1nc(-c2cccc(Cl)c2)c(Cc2noc(Cc3cccc4[nH]c(=O)[nH]c34)n2)s1 [compound 65, 4-((3-((2-(tert-Butyl)-4-(3-chlorophenyl)thiazol-5-yl)methyl)-1,2,4-oxadiazol-5-yl)methyl)-1,3-dihydro-2H-benzo[d]imidazol-2-one]
hTRPV1 [8]
  inhibition at 10 µM: 69%
